Source: the supplement of paper PMC10307832

Columns and labels:
Test in all cases: relative viability (nuclei count vs DMSO), 5 days (fraction); higher = more cells survive
[1] = system: ChaGo-K-1
Procedure, shortened: (§1)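 Relative viability divides the nuclei count in treated wells by that in vehicle wells. Lung cancer cell lines were seeded in 1536-well plates, dosed by pin tool the next day, and fixed and stained after 5 days in one step with final 0.05% Triton X-100, 1% formaldehyde and 1 ug/ml Hoechst. Dosing was a single drug or a fixed anchor-drug dose plus five library-drug doses (not always all listed) in √10 steps, and values are medians of duplicate plates imaged at 4×.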

[2] = system: NCI-H520
Procedure, shortened: as §1

[3] = system: COR-L 105
Procedure, shortened: as §1

[4] = system: NCI-H23
Procedure, shortened: as §1

[5] = system: NCI-H650
Procedure, shortened: as §1

[6] = system: H3255
Procedure, shortened: as §1

[7] = system: NCI-H1915
Procedure, shortened: as §1

[8] = system: NCI-H647
Procedure, shortened: as §1

[9] = system: NCI-H2347
Procedure, shortened: as §1

[10] = system: NCI-H661
Procedure, shortened: as §1

[11] = system: LC-2-ad
Procedure, shortened: as §1

[12] = system: HCC-827
Procedure, shortened: as §1

[13] = system: LCLC-97TM1
Procedure, shortened: as §1

[14] = system: NCI-H2405
Procedure, shortened: as §1

[15] = system: HCC-78
Procedure, shortened: as §1

[16] = system: NCI-H2126
Procedure, shortened: as §1

[17] = system: EPLC-272H
Procedure, shortened: as §1

[18] = system: PC-14
Procedure, shortened: as §1

[19] = system: 201T
Procedure, shortened: as §1

[20] = system: RERF-LC-KJ
Procedure, shortened: as §1

[21] = system: NCI-H1666
Procedure, shortened: as §1

[22] = system: NCI-H2087
Procedure, shortened: as §1

## Nc1ccn([C@@H]2O[C@H](CO)[C@@H](O)[C@@H]2O)c(=O)n1 [Cytarabine] + Cc1cc(Nc2cc(N3CCN(C)CC3)nc(Sc3ccc(NC(=O)C4CC4)cc3)n2)n[nH]1 [Tozasertib] (partner 0.1 µM)
[1]; first compound 0.005 µM
  relative viability: 0.188
[1]; first compound 0.01581 µM
  relative viability: 0.207
[1]; first compound 0.05 µM
  relative viability: 0.208
[1]; first compound 0.1581 µM
  relative viability: 0.16
[1]; first compound 0.5 µM
  relative viability: 0.149
[2]; first compound 0.005 µM
  relative viability: 0.416
[2]; first compound 0.01581 µM
  relative viability: 0.463
[2]; first compound 0.05 µM
  relative viability: 0.478
[2]; first compound 0.1581 µM
  relative viability: 0.415
[2]; first compound 0.5 µM
  relative viability: 0.494
[3]; first compound 0.005 µM
  relative viability: 0.305
[3]; first compound 0.01581 µM
  relative viability: 0.317
[3]; first compound 0.05 µM
  relative viability: 0.306
[3]; first compound 0.1581 µM
  relative viability: 0.319
[3]; first compound 0.5 µM
  relative viability: 0.334
[4]; first compound 0.005 µM
  relative viability: 0.362
[4]; first compound 0.01581 µM
  relative viability: 0.32
[4]; first compound 0.05 µM
  relative viability: 0.243
[4]; first compound 0.1581 µM
  relative viability: 0.55
[4]; first compound 0.5 µM
  relative viability: 0.244
[5]; first compound 0.005 µM
  relative viability: 0.595
[5]; first compound 0.01581 µM
  relative viability: 0.513
[5]; first compound 0.05 µM
  relative viability: 0.34
[5]; first compound 0.1581 µM
  relative viability: 0.249
[5]; first compound 0.5 µM
  relative viability: 0.176
[6]; first compound 0.005 µM
  relative viability: 0.586
[6]; first compound 0.01581 µM
  relative viability: 0.644
[6]; first compound 0.05 µM
  relative viability: 0.786
[6]; first compound 0.1581 µM
  relative viability: 0.604
[6]; first compound 0.5 µM
  relative viability: 0.488
[7]; first compound 0.005 µM
  relative viability: 0.351
[7]; first compound 0.01581 µM
  relative viability: 0.472
[7]; first compound 0.05 µM
  relative viability: 0.401
[7]; first compound 0.1581 µM
  relative viability: 0.319
[7]; first compound 0.5 µM
  relative viability: 0.32
[8]; first compound 0.005 µM
  relative viability: 0.205
[8]; first compound 0.01581 µM
  relative viability: 0.22
[8]; first compound 0.05 µM
  relative viability: 0.0474
[8]; first compound 0.1581 µM
  relative viability: 0.073
[8]; first compound 0.5 µM
  relative viability: 0.0484
[9]; first compound 0.005 µM
  relative viability: 0.553
[9]; first compound 0.01581 µM
  relative viability: 0.427
[9]; first compound 0.05 µM
  relative viability: 0.444
[9]; first compound 0.1581 µM
  relative viability: 0.52
[9]; first compound 0.5 µM
  relative viability: 0.402
[10]; first compound 0.005 µM
  relative viability: 0.371
[10]; first compound 0.01581 µM
  relative viability: 0.368
[10]; first compound 0.05 µM
  relative viability: 0.351
[10]; first compound 0.1581 µM
  relative viability: 0.349
[10]; first compound 0.5 µM
  relative viability: 0.364
[11]; first compound 0.005 µM
  relative viability: 0.415
[11]; first compound 0.01581 µM
  relative viability: 0.452
[11]; first compound 0.05 µM
  relative viability: 0.418
[11]; first compound 0.1581 µM
  relative viability: 0.39
[11]; first compound 0.5 µM
  relative viability: 0.301
[12]; first compound 0.005 µM
  relative viability: 0.32
[12]; first compound 0.01581 µM
  relative viability: 0.282
[12]; first compound 0.05 µM
  relative viability: 0.286
[12]; first compound 0.1581 µM
  relative viability: 0.187
[12]; first compound 0.5 µM
  relative viability: 0.172
[13]; first compound 0.005 µM
  relative viability: 0.248
[13]; first compound 0.01581 µM
  relative viability: 0.247
[13]; first compound 0.05 µM
  relative viability: 0.235
[13]; first compound 0.1581 µM
  relative viability: 0.207
[13]; first compound 0.5 µM
  relative viability: 0.174
[14]; first compound 0.005 µM
  relative viability: 0.66
[14]; first compound 0.01581 µM
  relative viability: 0.712
[14]; first compound 0.05 µM
  relative viability: 0.56
[14]; first compound 0.1581 µM
  relative viability: 0.429
[14]; first compound 0.5 µM
  relative viability: 0.371
[15]; first compound 0.005 µM
  relative viability: 0.518
[15]; first compound 0.01581 µM
  relative viability: 0.489
[15]; first compound 0.05 µM
  relative viability: 0.389
[15]; first compound 0.1581 µM
  relative viability: 0.333
[15]; first compound 0.5 µM
  relative viability: 0.253
[16]; first compound 0.005 µM
  relative viability: 0.655
[16]; first compound 0.01581 µM
  relative viability: 0.774
[16]; first compound 0.05 µM
  relative viability: 0.607
[16]; first compound 0.1581 µM
  relative viability: 0.53
[16]; first compound 0.5 µM
  relative viability: 0.348
[17]; first compound 0.005 µM
  relative viability: 0.294
[17]; first compound 0.01581 µM
  relative viability: 0.199
[17]; first compound 0.05 µM
  relative viability: 0.289
[17]; first compound 0.1581 µM
  relative viability: 0.29
[17]; first compound 0.5 µM
  relative viability: 0.261
[18]; first compound 0.005 µM
  relative viability: 0.404
[18]; first compound 0.01581 µM
  relative viability: 0.448
[18]; first compound 0.05 µM
  relative viability: 0.248
[18]; first compound 0.1581 µM
  relative viability: 0.157
[18]; first compound 0.5 µM
  relative viability: 0.0594
[19]; first compound 0.005 µM
  relative viability: 0.886
[19]; first compound 0.01581 µM
  relative viability: 0.944
[19]; first compound 0.05 µM
  relative viability: 0.911
[19]; first compound 0.1581 µM
  relative viability: 0.837
[19]; first compound 0.5 µM
  relative viability: 0.706
[20]; first compound 0.005 µM
  relative viability: 0.385
[20]; first compound 0.01581 µM
  relative viability: 0.512
[20]; first compound 0.05 µM
  relative viability: 0.353
[20]; first compound 0.1581 µM
  relative viability: 0.393
[20]; first compound 0.5 µM
  relative viability: 0.266
[21]; first compound 0.005 µM
  relative viability: 0.559
[21]; first compound 0.01581 µM
  relative viability: 0.628
[21]; first compound 0.05 µM
  relative viability: 0.469
[21]; first compound 0.1581 µM
  relative viability: 0.446
[21]; first compound 0.5 µM
  relative viability: 0.423
[22]; first compound 0.005 µM
  relative viability: 0.254
[22]; first compound 0.01581 µM
  relative viability: 0.25
[22]; first compound 0.05 µM
  relative viability: 0.234
[22]; first compound 0.1581 µM
  relative viability: 0.195
[22]; first compound 0.5 µM
  relative viability: 0.174
